The results in this text go back to ChEMBL document CHEMBL1130787, “Synthesis and in vitro antimalarial activity of sulfone endoperoxides” (Bioorg Med Chem Lett, 1998).

Bounds are passed on as bounds.

In this test the test system is Plasmodium falciparum. The experiment in a line: In vitro antimalarial activity against chloroquine-sensitive Plasmodium falciparum NF 54. In kind it is functional, organism-based.
Molecule `CCOC(=O)C(=O)OC1(C)CCC2CC1OO[C@]2(C)CS(=O)(=O)c1ccccc1` (some centres undefined) yielded a concentration for half-maximal inhibition (IC50) of 140 nM.

For the molecule `C[C@@H]1CC[C@H]2[C@@H](C)C(=O)O[C@@H]3O[C@@]4(C)CC[C@@H]1[C@]32OO4` [ARTEMISININ], the 50% inhibitory concentration (IC50) was determined as 9.3 nM.

Molecule `CC1(OC(=O)C(=O)N(Cc2ccccc2)Cc2ccccc2)CCC2CC1OO[C@@]2(C)CS(=O)(=O)c1ccccc1` (some centres undefined) registered an IC50 of 21 nM.

Consider `COc1ccc(COC2(C)CCC3CC2OO[C@@]3(C)CS(=O)(=O)c2ccccc2)cc1` (some centres undefined), for which half-maximal inhibition (IC50) was put at 14 nM.

Regarding `CC(=O)OC1(C)CCC2CC1OO[C@]2(C)CS(=O)(=O)c1ccccc1` (some centres undefined), the IC50 came out at 17 nM.

In turn, `CC(=O)CC(=O)OC1(C)CCC2CC1OO[C@]2(C)CS(=O)(=O)c1ccccc1` (some centres undefined) showed a concentration for half-maximal inhibition (IC50) of 73 nM.

Consider `CC1(O)CCC2CC1OO[C@@]2(C)CS(=O)(=O)c1ccccc1` (some centres undefined), for which half-maximal inhibition (IC50) was put at 55 nM.

Molecule `CC(=O)CC(=O)OC1(C)CCC2CC1OO[C@@]2(C)CS(=O)(=O)c1ccccc1` (some centres undefined) displayed an IC50 of 46 nM.

Turning to `CC1(CSc2ccccc2)OOC2CC1CC[C@@]2(C)O.CC1(CSc2ccccc2)OOC2CC1CC[C@]2(C)O` (some centres undefined), the 50% inhibitory concentration (IC50) was above 2500 nM.

In turn, `CC(=O)OC1(C)CCC2CC1OO[C@@]2(C)CS(=O)(=O)c1ccccc1` (some centres undefined) registered a half-inhibitory concentration (IC50) of 17 nM.

Regarding `CCOC(=O)C(=O)OC1(C)CCC2CC1OO[C@@]2(C)CS(=O)(=O)c1ccccc1` (some centres undefined), it took 170 nM to reach half-maximal inhibition (IC50).

In the case of `C[C@@H]1C(=O)C[C@H]2CC1OO[C@@]2(C)/C=C\c1ccc(C(F)(F)F)cc1C(F)(F)F` (single isomer, unassigned) [ARTEFLENE], the midpoint of inhibition, the IC50, lay at 71 nM.

The molecule `CC1(O)CCC2CC1OO[C@]2(C)CS(=O)(=O)c1ccccc1` (some centres undefined) returned an IC50 of 89 nM.

`CC1(OC(=O)C(=O)N(Cc2ccccc2)Cc2ccccc2)CCC2CC1OO[C@]2(C)CS(=O)(=O)c1ccccc1` (some centres undefined): the concentration for half-maximal inhibition (IC50) was 81 nM.

Usually IC50 stands for the midpoint of a concentration-inhibition curve. Low values mean greater potency, high ones weaker potency.
